Data from ChEMBL document CHEMBL4507319 (2021).

Assays:
Conditions in all cases: Compound concentration 1.0 uM
[1] = target: RAF proto-oncogene serine/threonine-protein kinase (Homo sapiens) (UniProt P04049); assay: c-RAF(h) Eurofins kinase panel
[2] = target: 5'-AMP-activated protein kinase catalytic subunit alpha-2 (Homo sapiens, UniProt P54646)
[3] = target: Serine/threonine-protein kinase 24 (Homo sapiens, UniProt Q9Y6E0)
[4] = target: T1, Mitogen-activated protein kinase kinase kinase 5 (Homo sapiens) (UniProt Q99683); assay: ASK1(h) Eurofins kinase panel
T1 sequence (whole entry): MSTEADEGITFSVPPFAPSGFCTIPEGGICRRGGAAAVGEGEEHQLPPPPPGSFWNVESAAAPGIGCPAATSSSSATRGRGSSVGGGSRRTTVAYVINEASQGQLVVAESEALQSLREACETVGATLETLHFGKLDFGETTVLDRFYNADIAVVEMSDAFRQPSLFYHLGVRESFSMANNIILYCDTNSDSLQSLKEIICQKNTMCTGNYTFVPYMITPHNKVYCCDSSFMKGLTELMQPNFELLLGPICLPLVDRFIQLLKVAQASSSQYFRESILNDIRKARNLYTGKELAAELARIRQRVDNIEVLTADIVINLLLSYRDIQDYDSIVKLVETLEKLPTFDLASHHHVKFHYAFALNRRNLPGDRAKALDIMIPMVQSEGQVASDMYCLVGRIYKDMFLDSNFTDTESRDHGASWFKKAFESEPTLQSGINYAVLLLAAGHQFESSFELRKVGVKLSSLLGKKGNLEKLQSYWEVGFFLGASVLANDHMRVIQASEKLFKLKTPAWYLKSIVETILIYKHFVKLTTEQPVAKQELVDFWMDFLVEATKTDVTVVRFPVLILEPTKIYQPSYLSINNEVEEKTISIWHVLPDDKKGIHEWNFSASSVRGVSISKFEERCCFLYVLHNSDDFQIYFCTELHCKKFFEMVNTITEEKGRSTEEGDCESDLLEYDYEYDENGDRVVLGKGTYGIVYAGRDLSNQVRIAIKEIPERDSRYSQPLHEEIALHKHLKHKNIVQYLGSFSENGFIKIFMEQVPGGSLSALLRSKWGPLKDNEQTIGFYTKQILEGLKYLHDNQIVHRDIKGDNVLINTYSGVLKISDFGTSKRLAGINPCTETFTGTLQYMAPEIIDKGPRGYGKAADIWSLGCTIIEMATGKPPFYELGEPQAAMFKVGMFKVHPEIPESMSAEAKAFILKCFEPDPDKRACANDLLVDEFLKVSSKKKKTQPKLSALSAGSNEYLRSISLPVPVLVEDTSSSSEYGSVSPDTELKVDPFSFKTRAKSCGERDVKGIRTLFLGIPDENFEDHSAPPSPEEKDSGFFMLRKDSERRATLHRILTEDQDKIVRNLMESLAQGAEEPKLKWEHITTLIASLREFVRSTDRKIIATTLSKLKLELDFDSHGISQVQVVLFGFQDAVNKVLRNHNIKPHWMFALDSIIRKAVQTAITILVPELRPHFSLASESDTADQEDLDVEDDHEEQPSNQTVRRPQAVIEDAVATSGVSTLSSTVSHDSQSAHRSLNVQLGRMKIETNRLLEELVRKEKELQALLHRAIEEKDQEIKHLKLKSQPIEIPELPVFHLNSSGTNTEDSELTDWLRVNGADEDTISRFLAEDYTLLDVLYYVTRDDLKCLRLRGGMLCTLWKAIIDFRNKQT

[5] = target: T2, Serine/threonine-protein kinase 17A (Homo sapiens) (UniProt Q9UEE5); assay: DRAK1(h) Eurofins kinase panel
T2 sequence (whole entry): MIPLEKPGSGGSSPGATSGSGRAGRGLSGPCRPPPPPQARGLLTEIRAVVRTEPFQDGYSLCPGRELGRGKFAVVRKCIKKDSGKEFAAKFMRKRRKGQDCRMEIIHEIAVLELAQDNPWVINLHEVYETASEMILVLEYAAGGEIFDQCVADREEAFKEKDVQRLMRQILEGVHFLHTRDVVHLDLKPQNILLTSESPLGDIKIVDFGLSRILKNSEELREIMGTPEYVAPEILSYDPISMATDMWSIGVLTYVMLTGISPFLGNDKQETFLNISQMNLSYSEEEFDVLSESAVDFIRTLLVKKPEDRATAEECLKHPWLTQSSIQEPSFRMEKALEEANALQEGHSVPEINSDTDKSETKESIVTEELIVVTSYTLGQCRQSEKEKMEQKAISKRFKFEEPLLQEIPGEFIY

[6] = target: Serine/threonine-protein kinase MRCK alpha (Homo sapiens) (UniProt Q5VT25); assay: MRCKalpha(h) Eurofins kinase panel
Chain of Serine/threonine-protein kinase MRCK alpha (Homo sapiens) (Q5VT25 whole entry): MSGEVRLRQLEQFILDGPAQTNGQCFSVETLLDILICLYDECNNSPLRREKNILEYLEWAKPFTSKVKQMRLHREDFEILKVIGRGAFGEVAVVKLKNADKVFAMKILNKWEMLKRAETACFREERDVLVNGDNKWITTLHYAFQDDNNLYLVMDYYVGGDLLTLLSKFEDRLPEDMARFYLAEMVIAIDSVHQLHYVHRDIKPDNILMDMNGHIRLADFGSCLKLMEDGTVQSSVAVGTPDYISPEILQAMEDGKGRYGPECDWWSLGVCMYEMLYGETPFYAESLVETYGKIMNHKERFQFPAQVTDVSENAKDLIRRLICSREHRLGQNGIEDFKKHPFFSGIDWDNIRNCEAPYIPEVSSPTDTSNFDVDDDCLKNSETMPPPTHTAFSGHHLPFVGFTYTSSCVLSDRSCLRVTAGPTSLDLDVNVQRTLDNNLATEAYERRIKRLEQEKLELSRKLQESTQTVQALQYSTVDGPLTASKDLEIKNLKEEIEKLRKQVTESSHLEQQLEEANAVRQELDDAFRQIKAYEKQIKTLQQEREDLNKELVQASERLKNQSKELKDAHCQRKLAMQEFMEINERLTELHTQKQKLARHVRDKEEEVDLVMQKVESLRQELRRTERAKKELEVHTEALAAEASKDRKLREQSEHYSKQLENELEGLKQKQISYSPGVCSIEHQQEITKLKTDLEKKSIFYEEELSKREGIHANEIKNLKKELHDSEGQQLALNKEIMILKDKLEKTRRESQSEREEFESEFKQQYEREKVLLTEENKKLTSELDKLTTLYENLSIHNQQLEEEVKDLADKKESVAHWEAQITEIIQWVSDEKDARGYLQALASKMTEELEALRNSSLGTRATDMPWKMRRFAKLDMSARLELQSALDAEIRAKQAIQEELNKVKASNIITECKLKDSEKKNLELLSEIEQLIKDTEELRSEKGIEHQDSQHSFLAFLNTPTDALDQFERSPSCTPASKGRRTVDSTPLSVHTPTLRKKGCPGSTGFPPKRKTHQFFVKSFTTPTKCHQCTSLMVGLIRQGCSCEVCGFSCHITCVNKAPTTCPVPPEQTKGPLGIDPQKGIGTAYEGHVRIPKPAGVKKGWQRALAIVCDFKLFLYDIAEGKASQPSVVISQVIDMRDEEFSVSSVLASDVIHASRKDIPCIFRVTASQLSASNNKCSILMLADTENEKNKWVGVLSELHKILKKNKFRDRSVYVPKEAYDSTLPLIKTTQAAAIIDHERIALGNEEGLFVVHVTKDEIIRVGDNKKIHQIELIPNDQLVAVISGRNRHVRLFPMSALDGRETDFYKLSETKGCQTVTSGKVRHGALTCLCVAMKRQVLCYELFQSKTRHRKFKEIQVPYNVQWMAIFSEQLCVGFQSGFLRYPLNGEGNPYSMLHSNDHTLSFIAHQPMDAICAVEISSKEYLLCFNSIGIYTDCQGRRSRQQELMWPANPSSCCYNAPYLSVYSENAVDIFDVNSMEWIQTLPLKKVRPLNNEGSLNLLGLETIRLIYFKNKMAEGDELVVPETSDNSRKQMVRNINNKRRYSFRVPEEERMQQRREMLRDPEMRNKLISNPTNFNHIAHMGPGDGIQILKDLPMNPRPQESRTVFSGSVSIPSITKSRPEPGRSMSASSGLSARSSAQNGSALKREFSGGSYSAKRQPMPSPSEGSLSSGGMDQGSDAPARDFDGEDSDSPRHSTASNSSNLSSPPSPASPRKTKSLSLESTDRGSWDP

[7] = target: Serine/threonine-protein kinase 33 (Homo sapiens) (UniProt Q9BYT3); assay: STK33(h) Eurofins kinase panel
Chain of Serine/threonine-protein kinase 33 (Homo sapiens) (Q9BYT3 whole entry, looked up): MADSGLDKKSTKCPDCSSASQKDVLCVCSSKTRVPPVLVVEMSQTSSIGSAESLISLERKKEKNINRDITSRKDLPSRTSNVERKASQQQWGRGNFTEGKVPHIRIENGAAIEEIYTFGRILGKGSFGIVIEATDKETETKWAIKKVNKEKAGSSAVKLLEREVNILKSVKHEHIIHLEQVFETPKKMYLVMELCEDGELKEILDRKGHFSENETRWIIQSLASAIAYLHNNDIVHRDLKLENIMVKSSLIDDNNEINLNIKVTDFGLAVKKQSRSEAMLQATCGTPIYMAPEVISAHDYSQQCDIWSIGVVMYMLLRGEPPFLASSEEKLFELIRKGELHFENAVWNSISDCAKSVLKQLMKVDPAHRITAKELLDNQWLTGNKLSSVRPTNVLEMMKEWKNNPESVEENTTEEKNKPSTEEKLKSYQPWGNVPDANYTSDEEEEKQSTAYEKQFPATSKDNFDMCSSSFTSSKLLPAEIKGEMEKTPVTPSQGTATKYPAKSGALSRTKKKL

[8] = target: Homeodomain-interacting protein kinase 2 (Homo sapiens) (UniProt Q9H2X6); assay: HIPK2(h) Eurofins kinase panel
Chain of Homeodomain-interacting protein kinase 2 (Homo sapiens) (Q9H2X6 whole entry, looked up): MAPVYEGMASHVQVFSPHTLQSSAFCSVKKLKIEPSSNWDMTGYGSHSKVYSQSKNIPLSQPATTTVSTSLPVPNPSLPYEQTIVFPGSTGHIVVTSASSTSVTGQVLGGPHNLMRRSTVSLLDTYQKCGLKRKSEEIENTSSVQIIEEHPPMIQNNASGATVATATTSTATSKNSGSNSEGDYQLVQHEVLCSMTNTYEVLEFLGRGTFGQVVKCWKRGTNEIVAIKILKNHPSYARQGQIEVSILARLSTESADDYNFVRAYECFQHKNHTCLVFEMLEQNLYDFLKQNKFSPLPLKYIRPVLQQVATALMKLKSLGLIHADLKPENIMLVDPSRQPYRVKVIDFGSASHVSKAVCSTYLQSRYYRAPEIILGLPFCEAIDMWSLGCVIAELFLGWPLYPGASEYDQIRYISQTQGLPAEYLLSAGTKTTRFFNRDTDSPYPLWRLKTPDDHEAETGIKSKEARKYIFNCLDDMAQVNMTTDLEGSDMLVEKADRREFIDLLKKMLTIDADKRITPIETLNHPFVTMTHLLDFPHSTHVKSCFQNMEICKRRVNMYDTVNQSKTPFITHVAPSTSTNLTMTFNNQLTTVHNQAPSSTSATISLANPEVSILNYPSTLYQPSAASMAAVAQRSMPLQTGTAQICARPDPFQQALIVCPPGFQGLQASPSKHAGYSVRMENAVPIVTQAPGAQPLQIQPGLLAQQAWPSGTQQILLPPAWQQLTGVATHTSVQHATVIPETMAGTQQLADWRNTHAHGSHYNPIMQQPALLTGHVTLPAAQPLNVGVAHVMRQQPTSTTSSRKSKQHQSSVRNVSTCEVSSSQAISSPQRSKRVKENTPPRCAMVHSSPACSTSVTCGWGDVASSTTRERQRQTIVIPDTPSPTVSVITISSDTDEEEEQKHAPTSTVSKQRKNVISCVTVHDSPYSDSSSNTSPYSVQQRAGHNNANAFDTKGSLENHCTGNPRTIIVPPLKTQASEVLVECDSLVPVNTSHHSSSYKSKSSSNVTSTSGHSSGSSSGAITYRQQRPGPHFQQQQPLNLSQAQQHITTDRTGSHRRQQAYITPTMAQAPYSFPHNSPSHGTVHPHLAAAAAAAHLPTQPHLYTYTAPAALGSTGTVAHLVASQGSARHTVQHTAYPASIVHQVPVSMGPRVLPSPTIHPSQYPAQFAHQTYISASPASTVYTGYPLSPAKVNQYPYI

[9] = target: T3, Homeodomain-interacting protein kinase 4 (Homo sapiens) (UniProt Q8NE63); assay: HIPK4(h) Eurofins kinase panel
T3 sequence (whole entry): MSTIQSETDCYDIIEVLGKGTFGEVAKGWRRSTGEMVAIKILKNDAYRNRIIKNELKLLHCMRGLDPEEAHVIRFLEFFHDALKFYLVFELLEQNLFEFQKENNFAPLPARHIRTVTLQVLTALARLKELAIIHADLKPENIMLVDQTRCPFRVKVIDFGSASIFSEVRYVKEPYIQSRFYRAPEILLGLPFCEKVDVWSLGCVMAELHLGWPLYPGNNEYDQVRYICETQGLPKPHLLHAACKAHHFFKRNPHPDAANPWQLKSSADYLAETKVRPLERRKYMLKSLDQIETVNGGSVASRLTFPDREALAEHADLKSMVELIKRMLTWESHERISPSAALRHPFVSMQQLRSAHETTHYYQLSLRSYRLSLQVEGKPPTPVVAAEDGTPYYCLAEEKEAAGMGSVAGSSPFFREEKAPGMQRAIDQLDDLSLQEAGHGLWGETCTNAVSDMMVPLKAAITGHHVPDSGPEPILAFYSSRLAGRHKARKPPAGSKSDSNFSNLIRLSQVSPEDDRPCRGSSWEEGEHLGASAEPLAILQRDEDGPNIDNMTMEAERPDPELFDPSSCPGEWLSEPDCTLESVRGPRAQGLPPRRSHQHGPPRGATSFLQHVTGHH

Measured: % residual kinase activity

Chain of Serine/threonine-protein kinase 24 (Q9Y6E0 whole entry, looked up): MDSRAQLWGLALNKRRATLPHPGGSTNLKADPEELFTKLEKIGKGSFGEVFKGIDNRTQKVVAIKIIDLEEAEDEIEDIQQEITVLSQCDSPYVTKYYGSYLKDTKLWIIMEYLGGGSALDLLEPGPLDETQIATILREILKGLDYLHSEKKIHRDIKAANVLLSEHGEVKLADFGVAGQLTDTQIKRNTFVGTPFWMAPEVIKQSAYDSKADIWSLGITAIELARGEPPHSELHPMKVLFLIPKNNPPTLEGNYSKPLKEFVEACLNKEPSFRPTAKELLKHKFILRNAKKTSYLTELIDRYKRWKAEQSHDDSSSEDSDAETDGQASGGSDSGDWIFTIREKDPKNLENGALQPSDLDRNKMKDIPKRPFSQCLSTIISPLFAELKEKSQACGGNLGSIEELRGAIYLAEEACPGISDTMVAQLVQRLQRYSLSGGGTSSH
Chain of 5'-AMP-activated protein kinase catalytic subunit alpha-2 (P54646 whole entry, looked up): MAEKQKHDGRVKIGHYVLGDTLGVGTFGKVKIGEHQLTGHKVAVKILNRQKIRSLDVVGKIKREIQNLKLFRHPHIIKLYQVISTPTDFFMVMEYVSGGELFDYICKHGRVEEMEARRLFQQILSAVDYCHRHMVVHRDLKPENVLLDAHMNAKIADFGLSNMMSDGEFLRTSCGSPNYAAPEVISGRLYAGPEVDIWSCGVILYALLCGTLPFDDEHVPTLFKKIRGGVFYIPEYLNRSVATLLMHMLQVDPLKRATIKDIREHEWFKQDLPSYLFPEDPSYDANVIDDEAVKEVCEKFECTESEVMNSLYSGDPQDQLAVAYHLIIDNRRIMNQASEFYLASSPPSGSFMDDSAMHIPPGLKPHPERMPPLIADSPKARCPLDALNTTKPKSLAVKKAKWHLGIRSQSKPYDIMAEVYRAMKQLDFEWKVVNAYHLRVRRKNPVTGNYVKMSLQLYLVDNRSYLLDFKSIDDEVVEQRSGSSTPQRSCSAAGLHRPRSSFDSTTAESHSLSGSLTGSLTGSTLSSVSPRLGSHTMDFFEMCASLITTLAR
Chain of RAF proto-oncogene serine/threonine-protein kinase (Homo sapiens) (P04049 whole entry): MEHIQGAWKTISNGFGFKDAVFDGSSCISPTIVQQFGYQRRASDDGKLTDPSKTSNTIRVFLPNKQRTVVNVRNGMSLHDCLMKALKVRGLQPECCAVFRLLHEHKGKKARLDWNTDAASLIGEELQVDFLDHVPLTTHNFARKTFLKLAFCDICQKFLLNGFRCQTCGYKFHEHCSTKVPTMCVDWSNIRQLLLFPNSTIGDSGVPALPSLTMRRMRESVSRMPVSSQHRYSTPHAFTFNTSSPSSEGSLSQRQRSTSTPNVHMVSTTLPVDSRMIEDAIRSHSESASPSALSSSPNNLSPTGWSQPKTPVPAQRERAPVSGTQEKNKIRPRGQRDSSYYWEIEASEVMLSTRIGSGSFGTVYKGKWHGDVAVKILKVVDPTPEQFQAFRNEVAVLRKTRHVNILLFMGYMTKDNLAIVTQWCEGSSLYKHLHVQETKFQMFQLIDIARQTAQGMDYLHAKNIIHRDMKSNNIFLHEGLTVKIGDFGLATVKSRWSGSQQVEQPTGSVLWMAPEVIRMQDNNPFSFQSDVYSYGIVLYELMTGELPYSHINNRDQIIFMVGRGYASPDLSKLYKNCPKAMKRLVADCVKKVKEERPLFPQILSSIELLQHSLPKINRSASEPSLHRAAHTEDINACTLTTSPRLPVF

CCc1ccccc1C(=O)Nc1n[nH]c2c(C)c(F)c(C3C(C#N)=C(C)N(C)C(C)=C3C#N)cc12 [BAY-3827]
inactive: [1] 99% | [2] 0% | [3] 17% | [4] 99% | [5] 119% | [6] 98% | [7] 55% | [8] 100% | [9] 105%
